Results published in ChEMBL document CHEMBL3046407, “Toxicity of monoterpenes against larvae and adults of Colorado potato beetle, Leptinotarsa decemlineata Say (Coleoptera: Chrysomelidae)” (2007).

Tests used:
Assay type in all cases: functional
[1] = test system: Leptinotarsa decemlineata; assay: Insecticidal activity against first-instar larval stage of Leptinotarsa decemlineata infested potato leaves assessed as mortality at 10 ul after 24 hr relative to control
[2] = test system: Leptinotarsa decemlineata; assay: Insecticidal activity against adult Leptinotarsa decemlineata infested potato leaves assessed as mortality at 20 ul after 12 hr relative to control
[3] = test system: Leptinotarsa decemlineata; assay: Insecticidal activity against third-instar larval stage of Leptinotarsa decemlineata infested potato leaves assessed as mortality at 20 ul after 12 hr relative to control
[4] = test system: Leptinotarsa decemlineata; assay: Insecticidal activity against second-instar larval stage of Leptinotarsa decemlineata infested potato leaves assessed as mortality at 10 ul after 12 hr relative to control
[5] = test system: Leptinotarsa decemlineata; assay: Insecticidal activity against adult Leptinotarsa decemlineata infested potato leaves assessed as mortality at 20 ul after 24 hr relative to control
[6] = test system: Leptinotarsa decemlineata; assay: Insecticidal activity against second-instar larval stage of Leptinotarsa decemlineata infested potato leaves assessed as mortality at 10 ul after 96 hr (reference value: 3.3 +/- 3.3%)
[7] = test system: Leptinotarsa decemlineata; assay: Insecticidal activity against first-instar larval stage of Leptinotarsa decemlineata infested potato leaves assessed as mortality at 20 ul after 48 hr relative to control
[8] = test system: Leptinotarsa decemlineata; assay: Insecticidal activity against third-instar larval stage of Leptinotarsa decemlineata infested potato leaves assessed as mortality at 10 ul after 48 hr (reference value: 3.3 +/- 3.3%)
[9] = test system: Leptinotarsa decemlineata; assay: Insecticidal activity against first-instar larval stage of Leptinotarsa decemlineata infested potato leaves assessed as mortality at 10 ul after 96 hr relative to control
[10] = test system: Leptinotarsa decemlineata; assay: Insecticidal activity against second-instar larval stage of Leptinotarsa decemlineata infested potato leaves assessed as mortality at 20 ul after 96 hr (reference value: 3.3 +/- 3.3%)
[11] = test system: Leptinotarsa decemlineata; assay: Insecticidal activity against second-instar larval stage of Leptinotarsa decemlineata infested potato leaves assessed as mortality at 20 ul after 48 hr (reference value: 3.3 +/- 3.3%)
[12] = test system: Leptinotarsa decemlineata; assay: Insecticidal activity against adult Leptinotarsa decemlineata infested potato leaves assessed as mortality at 10 ul after 48 hr relative to control
[13] = test system: Leptinotarsa decemlineata; assay: Insecticidal activity against first-instar larval stage of Leptinotarsa decemlineata infested potato leaves assessed as mortality at 10 ul after 12 hr relative to control
[14] = test system: Leptinotarsa decemlineata; assay: Insecticidal activity against third-instar larval stage of Leptinotarsa decemlineata infested potato leaves assessed as mortality at 20 ul after 24 hr relative to control
[15] = test system: Leptinotarsa decemlineata; assay: Insecticidal activity against third-instar larval stage of Leptinotarsa decemlineata infested potato leaves assessed as mortality at 20 ul after 48 hr (reference value: 3.3 +/- 3.3%)
[16] = test system: Leptinotarsa decemlineata; assay: Insecticidal activity against first-instar larval stage of Leptinotarsa decemlineata infested potato leaves assessed as mortality at 20 ul after 96 hr relative to control
[17] = test system: Leptinotarsa decemlineata; assay: Insecticidal activity against second-instar larval stage of Leptinotarsa decemlineata infested potato leaves assessed as mortality at 10 ul after 48 hr (reference value: 3.3 +/- 3.3%)
[18] = test system: Leptinotarsa decemlineata; assay: Insecticidal activity against adult Leptinotarsa decemlineata infested potato leaves assessed as mortality at 10 ul after 24 hr relative to control
[19] = test system: Leptinotarsa decemlineata; assay: Insecticidal activity against adult Leptinotarsa decemlineata infested potato leaves assessed as mortality at 20 ul after 48 hr relative to control
[20] = test system: Leptinotarsa decemlineata; assay: Insecticidal activity against first-instar larval stage of Leptinotarsa decemlineata infested potato leaves assessed as mortality at 20 ul after 12 hr relative to control
[21] = test system: Leptinotarsa decemlineata; assay: Insecticidal activity against third-instar larval stage of Leptinotarsa decemlineata infested potato leaves assessed as mortality at 10 ul after 96 hr (reference value: 3.3 +/- 3.3%)
[22] = test system: Leptinotarsa decemlineata; assay: Insecticidal activity against third-instar larval stage of Leptinotarsa decemlineata infested potato leaves assessed as mortality at 10 ul after 24 hr relative to control
[23] = test system: Leptinotarsa decemlineata; assay: Insecticidal activity against second-instar larval stage of Leptinotarsa decemlineata infested potato leaves assessed as mortality at 20 ul after 12 hr relative to control
[24] = test system: Leptinotarsa decemlineata; assay: Insecticidal activity against third-instar larval stage of Leptinotarsa decemlineata infested potato leaves assessed as mortality at 10 ul after 12 hr relative to control
[25] = test system: Leptinotarsa decemlineata; assay: Insecticidal activity against second-instar larval stage of Leptinotarsa decemlineata infested potato leaves assessed as mortality at 10 ul after 24 hr (reference value: 3.3 +/- 3.3%)
[26] = test system: Leptinotarsa decemlineata; assay: Insecticidal activity against third-instar larval stage of Leptinotarsa decemlineata infested potato leaves assessed as mortality at 20 ul after 96 hr (reference value: 3.3 +/- 3.3%)
[27] = test system: Leptinotarsa decemlineata; assay: Insecticidal activity against adult Leptinotarsa decemlineata infested potato leaves assessed as mortality at 10 ul after 96 hr relative to control
[28] = test system: Leptinotarsa decemlineata; assay: Insecticidal activity against adult Leptinotarsa decemlineata infested potato leaves assessed as mortality at 10 ul after 12 hr relative to control
[29] = test system: Leptinotarsa decemlineata; assay: Insecticidal activity against adult Leptinotarsa decemlineata infested potato leaves assessed as mortality at 20 ul after 96 hr relative to control
[30] = test system: Leptinotarsa decemlineata; assay: Insecticidal activity against second-instar larval stage of Leptinotarsa decemlineata infested potato leaves assessed as mortality at 20 ul after 24 hr (reference value: 3.3 +/- 3.3%)
[31] = test system: Leptinotarsa decemlineata; assay: Insecticidal activity against first-instar larval stage of Leptinotarsa decemlineata infested potato leaves assessed as mortality at 10 ul after 48 hr relative to control
[32] = test system: Leptinotarsa decemlineata; assay: Insecticidal activity against first-instar larval stage of Leptinotarsa decemlineata infested potato leaves assessed as mortality at 20 ul after 24 hr relative to control

Row | SMILES | mortality [1] | mortality [2] | mortality [3] | mortality [4] | mortality [5] | mortality [6] | mortality [7] | mortality [8] | mortality [9] | mortality [10] | mortality [11] | mortality [12] | mortality [13] | mortality [14] | mortality [15] | mortality [16] | mortality [17] | mortality [18] | mortality [19] | mortality [20] | also measured
1 | C=C1CCC2CC1C2(C)C (stereo not drawn) [BETA-PINENE] | 66.7% | 80% | 100% | 56.7% | 96.7% | 100% | 100% | 100% | 100% | 86.7% | 80% | 100% | 43.3% | 100% | 100% | 100% | 90% | 100% | 100% | 66.7% | mortality [21]: 100%; mortality [22]: 83.3%; mortality [23]: 20%; mortality [24]: 80%; mortality [25]: 76.7%; mortality [26]: 100%; mortality [27]: 100%; mortality [28]: 100%; mortality [29]: 100%; mortality [30]: 70%; mortality [31]: 96.7%; mortality [32]: 100%
2 | CC1=CCC2C(C1)C2(C)C (stereo unspecified) [CARENE] | 63.3% | 50% | 100% | 46.7% | 80% | 100% | 86.7% | 100% | 100% | 93.3% | 93.3% | 80% | 36.7% | 100% | 100% | 86.7% | 100% | 73.3% | 86.7% | 56.7% | mortality [21]: 100%; mortality [22]: 100%; mortality [23]: 76.7%; mortality [24]: 100%; mortality [25]: 73.3%; mortality [26]: 100%; mortality [27]: 80%; mortality [28]: 36.7%; mortality [29]: 86.7%; mortality [30]: 86.7%; mortality [31]: 86.7%; mortality [32]: 70%
3 | CC(=O)OC/C=C(\C)CCC=C(C)C [GERANYL ACETATE] | 0% | 3.3% | 6.7% | 3.3% | 10% | 20% | 10% | 13.3% | 6.7% | 23.3% | 23.3% | 10% | 0% | 16.7% | 16.7% | 16.7% | 20% | 3.3% | 16.7% | 0% | mortality [21]: 13.3%; mortality [22]: 10%; mortality [23]: 6.7%; mortality [24]: 6.7%; mortality [25]: 3.3%; mortality [26]: 16.7%; mortality [27]: 10%; mortality [28]: 0%; mortality [29]: 26.7%; mortality [30]: 10%; mortality [31]: 0%; mortality [32]: 6.7%
